The record followed here is article PMC9088798, “An Approach to Derive Functional Peptide Inhibitors of Transcription Factor Activity” (JACS Au, 2022).

Experiment [1] concerns the target T1, cJun (Homo sapiens, UniProt P05412).
T1 construct: The human cJun bZIP domain spans from Arg252 to Leu308; His-SUMO (N, cleaved yes); AS cap (two residues Ala-Ser) (N); GAP cap (three residues Gly-Ala-Pro) (C); made in house; host or cells: E. coli (pET21-His-SUMO plasmid)
As to the kind of experiment: CD dimer exchange, competition for cJun. Format: binding. The conditions noted are these: A-FosW added to preformed HingeW/cJun heterodimer; total peptide 10 μM. The protocol: Figure 5 TBS winner peptide HingeW binds cJun preferentially over A-FosW. CD spectra (20 °C) show the binding of cJun to either (A) HingeW or (B) A-FosW. […] However, the effect is larger for HingeW, indicating a greater increase in peptide helicity. Similarly, the thermal denaturation of cJun bound to either (C) HingeW or (D) A-FosW is right-shifted from the average of the component peptide denaturation profiles. […]
Direct competition between HingeW and A-FosW for cJun binding was observed using CD dimer exchange experiments in which a solution containing one antagonist/cJun mixture was combined with the other antagonist to observe potential changes in α-helicity, as an indicator of a change in cJun dimerization partner. In this case, when HingeW was mixed with the preformed A-FosW/cJun heterodimer, a 17% increase in helicity was observed, as measured at 222 nm, relative to the average of the component signals (Figure 5E). […]
increased to the optimum 4 µM in subsequent passages. […] This allows the occurrence of library members to be monitored as winner sequences are selected for. […]

Experiment [2] relates to TRE DNA. In words: CD control, interaction with TRE DNA. Format: binding. The note with it: peptide 50 µM, TRE DNA 5 µM, CD spectra 260-320 nm. The method, then:
(§1) µM) alongside ampicillin, kanamycin and chloramphenicol to maintain the required plasmids, and IPTG (1 mM) to induce protein expression. The library transformants were […]
(§2) however a lower stringency is used initially before selection is increased in later steps.
(§3) Colonies from this first round of selection were pooled and serially grown in liquid culture at starting OD600 of 0.05 and grown at 37°C with shaking at 200 rpm until the OD600 […]
increased to the optimum 4 µM in subsequent passages. Bacteria containing the most effective functional antagonists were expected to produce higher levels of TRE-mDHFR which provides a growth advantage, and these will dominate the culture. At each passage step, a sample of the culture was plated on LB agar (supplemented with antibiotics to maintain plasmids) to select and sequence individual colonies, and a DNA pool was also sequenced. This allows the occurrence of library members to be monitored as winner sequences are selected for. Assay Validation experiments utilised a modified assay methodology whereby overnight cultures from glycerol stocks of the Control Strains (Figure S6) were diluted to OD600=0.5 and 50 µL was plated on a selective M9 minimal […]
Circular Dichroism (CD): An Applied Photophysics Chirascan was used for CD measurements, with a 200 µL sample in a 1 mm path length CD cell. […]

Experiment [3] addresses T1, cJun. As to the kind of experiment: Isothermal titration calorimetry, binding to cJun. The note with it: ITC, average of two independent experiments, one SD. The protocol:
Isothermal Titration Calorimetry (ITC): Peptides were studied in an ITC buffer consisting of 10 mM potassium phosphate, 150 mM potassium fluoride and 5 mM TCEP at pH 7.4. Using a MicroCal VP-ITC instrument (Malvern), 10 µL injections of antagonist peptide (HingeW or A-FosW) at 10 µM were injected into the cell containing cJun at 1 µM.
MicroCal Origin software was used to record and analyse the heat change upon addition.
Control experiments involved the injection of the antagonist peptide sample into the cell containing ITC buffer alone to determine the heat of dilution which was subtracted. The resulting binding data were fit to a one site binding model to extract the enthalpy change of binding (ΔH) and the equilibrium binding constant (K D), from which the free energy change of binding (ΔG) and the entropy change of binding (ΔS) was calculated (41).
Thermodynamic parameters are presented as an average of two independent experiments with errors given as one standard deviation. […]
(Isothermal titration calorimetry measures the heat released or taken up as one component is titrated into another.)

The test system of experiment [4] is TRE DNA. As to the kind of experiment: CD TRE DNA peak, binding of cJun to TRE DNA. The note with it: cJun 20 μM, TRE DNA 5 μM, ~281 nm. The protocol:
The binding of cJun to TRE DNA can be observed by monitoring a DNA absorbance peak in the CD spectrum centered at ∼281 nm.[44] […] The addition of cJun (20 μM) to TRE DNA (5 μM) decreases this DNA peak by 55% as the cJun engages its target TRE site and alters the DNA structure (Figure 6A). Subsequent titration of HingeW into this bound cJun/TRE DNA mixture reverses the peak shift, with the peak increasing as DNA is released. […]
as §1, §2, §3
increased to the optimum 4 µM in subsequent passages. Bacteria containing the most effective functional antagonists were expected to produce higher levels of TRE-mDHFR which provides a growth advantage, and these will dominate the culture. […] This allows the occurrence of library members to be monitored as winner sequences are selected for. […]

T1 sequence (P05412 252-308): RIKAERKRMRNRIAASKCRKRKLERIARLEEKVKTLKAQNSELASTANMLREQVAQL

A word on the Kd: it is the concentration at which binding is half-saturated. As to “LEQRAEELARENEELEKEAEELEQELDELQAEIEQLEERNYALRKEIEDLQKQLEKL [A-FosW, N-terminal AS and C-terminal GAP caps, 6xHis-tagged]”, in experiment [1], the “dimer exchange on mixing with preformed heterodimer” value was “no dimer exchange had occurred”. Moreover, the “interaction with TRE DNA” value in experiment [2] is “no interaction with DNA”. In addition, the dissociation constant (Kd) in experiment [3] (10 µM antagonist peptide injected into 1 µM cJun, 10 mM potassium phosphate, 150 mM KF, 5 mM TCEP, pH 7.4, one site model) worked out at 88.3 ± 17.6 nM. Also, in experiment [3], the TΔS is −112.6 ± 4.1 kJ mol^–1 and the ΔH is listed as −152.6 ± 4.1 kJ mol^–1. The “N (binding stoichiometry)” value in experiment [3] (single-site binding model) amounted to 1.04 ± 0.08.
With “cJun bZIP: human cJun bZIP domain, Arg252 to Leu308 (target protein)”, the “decrease of TRE DNA CD peak upon addition of cJun” value in experiment [4] stood at 55%.
